Measured values: PubChem BioAssay (NCI)
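Method: 48-hour compound exposure of cells in 96-well plates, five concentrations, linear interpolation of endpoints. TGI is the concentration that stops growth completely.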

How the values were obtained:
Assay in all cases: NCI tumour cell line growth inhibition, 48 h
HS 578T breast = system: HS 578T breast
LOX IMVI melanoma = system: LOX IMVI melanoma
M14 melanoma = system: M14 melanoma
NCI/ADR-RES ovarian = system: NCI/ADR-RES ovarian
UACC-62 melanoma = system: UACC-62 melanoma
MDA-MB-231 breast = system: MDA-MB-231 breast
MALME-3M melanoma = system: MALME-3M melanoma
A498 renal = system: A498 renal
SR leukemia = system: SR leukemia
HOP-92 NSCLC = system: HOP-92 NSCLC
NCI-H460 lung = system: NCI-H460 lung
786-0 renal = system: 786-0 renal
CAKI-1 renal = system: CAKI-1 renal
OVCAR-4 ovarian = system: OVCAR-4 ovarian
MCF7 breast = system: MCF7 breast
CCRF-CEM leukemia = system: CCRF-CEM leukemia
HOP-62 NSCLC = system: HOP-62 NSCLC
A549 NSCLC = system: A549 NSCLC
SF-295 CNS = system: SF-295 CNS
IGROV1 ovarian = system: IGROV1 ovarian
SK-OV-3 ovarian = system: SK-OV-3 ovarian
HCT-15 colon = system: HCT-15 colon
PC-3 prostate = system: PC-3 prostate
DU-145 prostate = system: DU-145 prostate
EKVX NSCLC = system: EKVX NSCLC
SF-268 CNS = system: SF-268 CNS
SK-MEL-2 melanoma = system: SK-MEL-2 melanoma
ACHN renal = system: ACHN renal
OVCAR-8 ovarian = system: OVCAR-8 ovarian
UACC-257 melanoma = system: UACC-257 melanoma
HT29 colon = system: HT29 colon
T-47D breast = system: T-47D breast
BT-549 breast = system: BT-549 breast
OVCAR-5 ovarian = system: OVCAR-5 ovarian
SN12C renal = system: SN12C renal
SNB-75 CNS = system: SNB-75 CNS
COLO 205 colon = system: COLO 205 colon
NCI-H23 lung = system: NCI-H23 lung
SNB-19 CNS = system: SNB-19 CNS
KM12 colon = system: KM12 colon
HCT-116 colon = system: HCT-116 colon
SW-620 colon = system: SW-620 colon
RXF 393 renal = system: RXF 393 renal
RPMI-8226 leukemia = system: RPMI-8226 leukemia
MDA-N = system: MDA-N
SF-539 CNS = system: SF-539 CNS
MOLT-4 leukemia = system: MOLT-4 leukemia
UO-31 renal = system: UO-31 renal
NCI-H522 lung = system: NCI-H522 lung
TK-10 renal = system: TK-10 renal
SK-MEL-5 melanoma = system: SK-MEL-5 melanoma
MDA-MB-435 = system: MDA-MB-435
U251 CNS = system: U251 CNS
K-562 leukemia = system: K-562 leukemia
SK-MEL-28 melanoma = system: SK-MEL-28 melanoma
OVCAR-3 ovarian = system: OVCAR-3 ovarian
HL-60(TB) leukemia = system: HL-60(TB) leukemia
NCI-H226 lung = system: NCI-H226 lung

`CC(C)(C)c1ccc(O)c(CN(Cc2c(O)ccc3ccccc23)C2CCCCC2)c1` gave a TGI (HS 578T breast) of 84.3 µM, a TGI (LOX IMVI melanoma) of 23.9 µM and a TGI (M14 melanoma) of 25.7 µM. For the same molecule, the TGI (NCI/ADR-RES ovarian) was 32.4 µM, the TGI (UACC-62 melanoma) was 30.1 µM and the TGI (MDA-MB-231 breast) was 30.6 µM. For the same molecule, the TGI (MALME-3M melanoma) was 31.9 µM, the TGI (A498 renal) was 37.6 µM and the TGI (SR leukemia) was 52.2 µM. The TGI (HOP-92 NSCLC) was 30.7 µM, the TGI (NCI-H460 lung) was 30.4 µM and the TGI (786-0 renal) was 29.2 µM. The TGI (CAKI-1 renal) was 32.2 µM, the TGI (OVCAR-4 ovarian) was 58.6 µM and the TGI (MCF7 breast) was 31.9 µM. The TGI (CCRF-CEM leukemia) was > 100 µM, the TGI (HOP-62 NSCLC) was 36.9 µM and the TGI (A549 NSCLC) was 48.9 µM. For the same molecule, the TGI (SF-295 CNS) was 38.1 µM, the TGI (IGROV1 ovarian) was 32.7 µM and the TGI (SK-OV-3 ovarian) was 58.6 µM. It also gave a TGI (HCT-15 colon) of 31 µM, a TGI (PC-3 prostate) of 28.5 µM and a TGI (DU-145 prostate) of 60.9 µM. It also gave a TGI (EKVX NSCLC) of 30 µM, a TGI (SF-268 CNS) of 30.9 µM and a TGI (SK-MEL-2 melanoma) of 31.3 µM. It also gave a TGI (ACHN renal) of 33.3 µM, a TGI (OVCAR-8 ovarian) of 31.8 µM and a TGI (UACC-257 melanoma) of 29.3 µM. The TGI (HT29 colon) was 31.6 µM, the TGI (T-47D breast) was 44.3 µM and the TGI (BT-549 breast) was 34.4 µM. It also gave a TGI (OVCAR-5 ovarian) of 32.4 µM, a TGI (SN12C renal) of 33.1 µM and a TGI (SNB-75 CNS) of 32.3 µM. It also gave a TGI (COLO 205 colon) of 29.3 µM, a TGI (NCI-H23 lung) of 35.3 µM and a TGI (SNB-19 CNS) of 43.9 µM. The TGI (KM12 colon) was 39.6 µM, the TGI (HCT-116 colon) was 30.9 µM and the TGI (SW-620 colon) was 85.2 µM. For the same molecule, the TGI (RXF 393 renal) was 33.6 µM, the TGI (RPMI-8226 leukemia) was > 100 µM and the TGI (MDA-N) was 29.3 µM. The TGI (SF-539 CNS) was 30.8 µM, the TGI (MOLT-4 leukemia) was 54.9 µM and the TGI (UO-31 renal) was 29.2 µM. The TGI (NCI-H522 lung) was 28.9 µM, the TGI (TK-10 renal) was 29.2 µM and the TGI (SK-MEL-5 melanoma) was 30.2 µM. It also gave a TGI (MDA-MB-435) of 52.6 µM, a TGI (U251 CNS) of 29.4 µM and a TGI (K-562 leukemia) of 52.1 µM. For the same molecule, the TGI (SK-MEL-28 melanoma) was 46 µM and the TGI (OVCAR-3 ovarian) was 34.3 µM.

For `COC(=O)C(Cc1c[nH]c2ccccc12)NP(=O)(O)OCC1OC(n2ccc(N)nc2=O)C(O)C1O` (stereo unspecified), the TGI (HS 578T breast) was > 100 µM, the TGI (LOX IMVI melanoma) was > 100 µM and the TGI (M14 melanoma) was > 100 µM. For the same molecule, the TGI (NCI/ADR-RES ovarian) was > 100 µM, the TGI (UACC-62 melanoma) was > 100 µM and the TGI (MDA-MB-231 breast) was > 100 µM. For the same molecule, the TGI (MALME-3M melanoma) was > 100 µM, the TGI (A498 renal) was > 100 µM and the TGI (SR leukemia) was > 100 µM. For the same molecule, the TGI (HOP-92 NSCLC) was > 100 µM, the TGI (NCI-H460 lung) was > 100 µM and the TGI (786-0 renal) was > 100 µM. For the same molecule, the TGI (CAKI-1 renal) was > 100 µM, the TGI (OVCAR-4 ovarian) was > 100 µM and the TGI (MCF7 breast) was > 100 µM. The TGI (CCRF-CEM leukemia) was > 100 µM, the TGI (HOP-62 NSCLC) was > 100 µM and the TGI (A549 NSCLC) was > 100 µM. The TGI (SF-295 CNS) was > 100 µM, the TGI (IGROV1 ovarian) was > 100 µM and the TGI (HL-60(TB) leukemia) was > 100 µM. The TGI (HCT-15 colon) was > 100 µM, the TGI (PC-3 prostate) was > 100 µM and the TGI (DU-145 prostate) was > 100 µM. For the same molecule, the TGI (EKVX NSCLC) was > 100 µM, the TGI (SF-268 CNS) was > 100 µM and the TGI (ACHN renal) was > 100 µM. The TGI (OVCAR-8 ovarian) was > 100 µM, the TGI (UACC-257 melanoma) was > 100 µM and the TGI (HT29 colon) was > 100 µM. For the same molecule, the TGI (T-47D breast) was > 100 µM, the TGI (BT-549 breast) was > 100 µM and the TGI (OVCAR-5 ovarian) was > 100 µM. For the same molecule, the TGI (SN12C renal) was > 100 µM, the TGI (SNB-75 CNS) was > 100 µM and the TGI (COLO 205 colon) was > 100 µM. For the same molecule, the TGI (NCI-H23 lung) was > 100 µM, the TGI (SNB-19 CNS) was > 100 µM and the TGI (KM12 colon) was > 100 µM. The TGI (HCT-116 colon) was > 100 µM, the TGI (SW-620 colon) was > 100 µM and the TGI (RPMI-8226 leukemia) was > 100 µM. The TGI (MDA-N) was > 100 µM, the TGI (SF-539 CNS) was > 100 µM and the TGI (MOLT-4 leukemia) was > 100 µM. The TGI (UO-31 renal) was > 100 µM, the TGI (NCI-H522 lung) was > 100 µM and the TGI (TK-10 renal) was > 100 µM. The TGI (NCI-H226 lung) was > 100 µM, the TGI (SK-MEL-5 melanoma) was > 100 µM and the TGI (MDA-MB-435) was > 100 µM. The TGI (U251 CNS) was > 100 µM, the TGI (K-562 leukemia) was > 100 µM and the TGI (SK-MEL-28 melanoma) was > 100 µM. For the same molecule, the TGI (OVCAR-3 ovarian) was > 100 µM.
